Laboratory results: US9458437B2, “Neuroprotective peptides that inhibit interaction between palmitoyl acyl transferase zinc-finger DHHC type containing 17 (zD17) and c-jun N-terminal kinase (JNK)” (The University of British Columbia, priority 2011, dated 2016)

Experiments:
[1] = system: neuronal cultures; test: LDH assay and PI staining, NMDA excitotoxicity-induced neuronal cell death; assay type: cell-based, rat; conditions: for excitotoxicity-induced cell death as measured by LDH release and PI staining: pretreatment, NMDA challenge 1 h, 24 h survival
Description: For biochemical studies, neurons were seeded in six-well culture plates with a density of 7.5×10^5 cells per well. For LDH assay and cell death detection, 24-well culture plates were used with a neuron density of 2.5×10^5 cells per well. Neurons of 14-17 days in vitro (DIV) were used for experiments. […] HEK 293 cells were maintained in DMEM (Invitrogen™) supplemented with 10% fetal bovine serum and 1% penicillin/streptomycin. For protein expression in cell lines, cells were transfected with Calcium Phosphate Transfection reagent (Promega™, San Luis Obispo, Calif., USA) and used 24 h later as described previously (Yang et al., 2009). The JNK inhibitor, L-JNKI, was purchased from Alexis Biochemicals™ (San Diego, Calif.). Thrombin was obtained from BIOPUR™ (Bubendorf, Switzerland). Other assay reagents without indication were obtained from Sigma™.
Neuronal cultures were challenged with indicated concentrations of NMDA for 1 h, followed by 24 h survival. The release of lactate dehydrogenase (LDH) was measured with an in vitro toxicology assay kit (Sigma™) according to the manufacturer's instructions. Spectrophotometric measurement was performed on a Multilabel Plate Reader (Envision™ 2103, Perkin Elmer™). The LDH reading represents the primary absorbance at a wavelength of 490 nm after subtraction of background absorbance at 690 nm. LDH readings were then converted to a percentage of neuronal death by dividing by the readings from cultures incubated with 1% triton for 15 min representing total LDH. Following the LDH assay, propidium iodide (PI) (Sigma™) was added to the medium at a final concentration of 1 μg/ml and neurons were stained for 30 min at 30° C. After fixation with 4% paraformaldehyde, neurons were washed with 1×PBS and stained with Hoechst™ 33342 (Sigma™). The fluorescence of PI and Hoechst™ were examined with laser microscopy and analyzed with ImageJ™.

[2] = system: middle cerebral artery occlusion (MCAo); test: transient MCAo in SD rats, adhesive removal test (ART); assay type: in vivo, Sprague-Dawley rat
Description: Adult male Sprague-Dawley (SD) rats weighing 250-290 g were employed for transient middle cerebral artery occlusion. Rats were anaesthetized with 5% isofluorane and maintained with 2% isofluorane in 70% N2O and 30% O2 using a face mask. 5 mg/kg ketoprofen was given pre-surgery to block pain. Rectal temperature was maintained at 37° C. during surgery with a homeothermic blanket system (Harvard Apparatus™, Holliston, Mass.). The scalp was incised at the midline and the skull was exposed. The skull was thinned with a dental drill at a region ipsilateral to the expected ischemia zone (2 mm posterior and 5 mm lateral from the bregma). A laser probe of the Doppler flowmeter (Perimed™, Jäffälla, Sweden) was placed at this location during surgery to detect cerebral blood flow (CBF) (Nagal et al., 2010). Transient MCAo was induced using a method of intraluminal vascular occlusion described elsewhere (Aarts et al., 2002; Belayev et al., 1996; and Longa et al., 1989). Briefly, a poly-L-lysine coated 3-0 monofilament nylon suture (Harvard Apparatus™, Holliston, Mass.) with a rounded tip was advanced from the left common carotid artery into the internal carotid artery until a sudden drop of CBF was noted, indicating the blockade of the origin of the MCA. The success of induction of ischemia was confirmed by a fall of CBF to less than 25% of baseline level and by neurological assessment scores during MCAo (1 h after the onset). Two hours after MCAo, rats were re-anaesthetized and the suture was removed to allow reperfusion, confirmed by the increase of CBF at the same area.
Peptides were synthesized by PepMetric Technologies™ or GL Biochem™ (Shanghai, China). Peptides were prepared freshly in saline on the day of experiment at a stock concentration of 1 mg/ml. 1 mg/kg peptides were administrated at indicated times (30 min before, 2 h after or 6 h after the onset of ischemia) by a single intravenous injection at rat tails. NIMoEscr or NIMoEsh were injected at 4 h after MCAo onset to randomly chosen rats. For long-term studies, peptides were given 2 h after MCAo onset. Injections of NIMoEscr and NIMoEsh were made, brain damage was assessed and functional evaluations performed in a double-blind manner To examine the delivery of the peptide into the brain, 5 mg/kg FITC-labelled NIMoE or only saline was intravenously injected 1 h before perfusion. The rats were then perfused with PBS followed by fixation solution (4% paraformaldehyde in PBS). Brains were removed, postfixed in fixation solution for 2 h and then soaked in 20% sucrose-PBS buffer at 4° C. for 24 h. After rapid freezing in Tissue-Tek™ embedding medium (Sakura™, Torrance, Calif.) on dry ice, 20 μm sections were cut on a cryostat (Leica™ CM3050, Ontario, Canada) and examined for FITC fluorescence by a laser microscopy (Zeiss™, Axiovert 200).
All animals were tested for neurological function during (1 h after onset) and 24 h after MCAo. Motor, sensory and coordination capacities were evaluated with modified Neurological Severity Scores (NSS) (Watanabe et al., 2004; Bederson et al., 1986). […] Coordination functions were assessed with 3 tests including a foot fault test, edge test and balance beam. Performance in the tests was evaluated on a cumulative scale from 0 to 2 (10 tests), except for two tests (tail suspension and balance beam in which scores ranged from 0 to Sand 0 to 4, respectively). […] The time spent on removing the tape from paw within 2 min was recorded.

[3] = system: middle cerebral artery occlusion (MCAo); test: transient MCAo in SD rats, neurological scores; assay type: in vivo, Sprague-Dawley rat; set-up: key: summed neurological score, 0 to 27
[4] = system: Bax and Cyt.c; test: NMDA-induced translocation of Bax and Cyt.c (mitochondria fractionation); assay type: cell-based, rat; conditions: neuronal cultures
Description: Cultured neurons were lysed on ice for 10 min in TEEN-SKM buffer containing 20 mM Tris-HCl (pH7.5), 10 mM KCl, 1.5 mM MgCl2, 1 mM EGTA, 1 mM EDTA, 1 mM DTT supplemented with the Complete Protease Inhibitor tablets. The lysates were homogenized with a 28^1/2G syringe for a total of 8 times on ice, followed by centrifugation twice at 700 g for 10 min at 4° C. The supernatant was then centrifuged at 10,000 g for 30 min at 4° C. to enrich mitochondria in the pellet. The cytosolic fraction was collected from the supernatant after further centrifugation at 100,000 g for 1 h at 4° C. 1× and 4×LB were added to the mitochondrial and cytosolic fractions, respectively. Equivalent amounts of samples were resolved by SDS-PAGE and blotted with antibodies against Cytochrome c and Bax.

[5] = peptide given 4 h after MCAo onset, day-1
[6] = peptide given 4 h after MCAo onset, day-3
[7] = peptide given 4 h after MCAo onset, day-7
[8] = peptide given 4 h after MCAo onset, day-14

| Sequence | excitotoxicity-induced cell death as measured by LDH release and PI staining [1] | adhesive removal test (ART), contralateral side ([2]; scrambled control peptide group) | neurological scores ([3]; 22 h after onset of MCAo, scrambled control peptide group) | neurological scores [3, 5] | neurological scores [3, 6] | neurological scores [3, 7] | neurological scores [3, 8] | protection of neurons over NMDA concentrations ([1]; NMDA 10 μM to 100 μM) | NMDA-induced translocation of Bax and Cyt.c [4] | adhesive removal test (ART), contralateral side ([2]; injection +2 h) | adhesive removal test (ART), contralateral side ([2]; injection +4 h) | adhesive removal test (ART), contralateral side ([2]; injection −0.5 h) | somatosensory functions in ART ([2]; MCAo rats) | neurological scores ([3]; 22 h after onset of MCAo, injection +2 h) | neurological scores ([3]; 22 h after onset of MCAo, injection +4 h) | neurological scores ([3]; 22 h after onset of MCAo, injection −0.5 h, scale 0 to 27) |
| --- | --- | --- | --- | --- | --- | --- | --- | --- | --- | --- | --- | --- | --- | --- | --- | --- |
| HRYRWLTDLLSMVTTPAAPM (NIMoEscr scrambled NIMoE) [negative control peptide resulting from a scrambled NIMoE, reference compound] | no protective effects | 10.80 ± 2.06 s | 18.60±1.24 | 19.25±0.80 | 13.63±1.03 | 7.13±0.58 | 4.38±0.50 | – | – | – | – | – | – | – | – | – |
| MTPLMWAAYRTHSVDPTRLL (listed as Homo sapiens) [NIMoE, peptide comprising motif-E of zD17, fused to the cell-membrane transduction domain of HIV-1 Tat for cell experiments] | significantly prevented | – | – | – | – | – | – | protected neurons against a broad range of NMDA concentrations | inhibited | 62.1 ± 8.60 s | 60.83 ± 8.13 s | 48.62 ± 8.24 s | – | – | – | – |
| WAAYRTHSVD (listed as Homo sapiens) [NIMoEsh, shorter 10mer of NIMoE, primarily the loop region of motif-E (zD17 196-205)] | significantly prevented | – | – | 11.43±1.96 | 5.86±1.14 | 1.71±0.47 | 0.85±0.34 | – | inhibited | – | – | – | large preservation of somatosensory functions | 8.50±0.75 | 11.20±1.49 | 8.00±0.72 |
